Experimental data: patent US20240294522A1 (Lead Discovery Center GmbH, priority 2021, published 2024)

Experiments:
GRK5 = target: T1, GRK5 (Homo sapiens, UniProt P34947); assay: Lance Kinase Activity Assay, GRK5; settings: biochemical Lance kinase activity assay; class symbols A-F; read-out: GRK5 LANCE Assay (IC-50)
T1 construct: purchased Thermo Scientific
Outline: (§1)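 IC50s from sigmoidal dose-response over 0.0025-10 μM compound, with phosphorylated ULight substrate detected by Eu anti-phospho antibody FRET after EDTA quench.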

[1] = system: neonatal rat ventricular cardiac myocytes (NRVCMs); assay: In vitro cardiomyocyte hypertrophy assay; assay type: cell-based, Wistar rats; settings: inhibition of cellular hypertrophy, NRVCMs stimulated with phenylephrine 20 μM and leukemia inhibitory factor 50 ng/ml, 96 h, read-out: Hypertrophy Assay (IC-50)
Experimental: 5-6 days old Wistar rats were sacrificed by decapitation and neonatal rat ventricular cardiac myocytes (NRVCMs) were prepared using the Neonatal heart dissociation kit (Miltenyi Biotec) according to the manufacturer's instructions. The cardiac single cell suspension was resuspended in DMEM low glucose medium supplemented with 2% fetal bovine serum (FBS) and 50 μg/ml penicillin/streptomycin. 1500 cells/well were seeded on 0.1% gelatin-coated 384-well plates and incubated in medium at 37° C. and 5% CO2 for 24 h prior to the addition of test compounds to the cells at titrated concentrations. Cellular hypertrophy was then stimulated by adding phenylephrine and leukemia inhibitory factor at final concentrations of 20 μM and 50 ng/ml, respectively, and the cells were incubated for another 96 h. For immunocytochemistry, cells were fixed with 4% formaldehyde on day 5 of compound treatment and cardiomyocytes were stained with antibodies against a-actinin while cell nuclei were stained with DAPI. Image acquisition and phenotypic analysis was performed using an Image-Xpress Micro XL automated microscope (Molecular Devices).
Inhibition of cellular hypertrophy is indicated as IC50 [nM]. Compounds having an activity designated as “A” provided an IC50≤500 nM; compounds having an activity designated as “B” provided an 500 nM<IC50≤1000 nM; compounds having an activity designated as “C” provided an IC50>1000 nM.

GRK2 = target: T2, GRK2 (Homo sapiens, UniProt P25098); assay: Lance Kinase Activity Assay, GRK2; settings: biochemical Lance kinase activity assay; class symbols A-F; read-out: GRK2 LANCE Assay (IC-50)
T2 construct: purchased Thermo Scientific
T2 sequence (P25098 1-689): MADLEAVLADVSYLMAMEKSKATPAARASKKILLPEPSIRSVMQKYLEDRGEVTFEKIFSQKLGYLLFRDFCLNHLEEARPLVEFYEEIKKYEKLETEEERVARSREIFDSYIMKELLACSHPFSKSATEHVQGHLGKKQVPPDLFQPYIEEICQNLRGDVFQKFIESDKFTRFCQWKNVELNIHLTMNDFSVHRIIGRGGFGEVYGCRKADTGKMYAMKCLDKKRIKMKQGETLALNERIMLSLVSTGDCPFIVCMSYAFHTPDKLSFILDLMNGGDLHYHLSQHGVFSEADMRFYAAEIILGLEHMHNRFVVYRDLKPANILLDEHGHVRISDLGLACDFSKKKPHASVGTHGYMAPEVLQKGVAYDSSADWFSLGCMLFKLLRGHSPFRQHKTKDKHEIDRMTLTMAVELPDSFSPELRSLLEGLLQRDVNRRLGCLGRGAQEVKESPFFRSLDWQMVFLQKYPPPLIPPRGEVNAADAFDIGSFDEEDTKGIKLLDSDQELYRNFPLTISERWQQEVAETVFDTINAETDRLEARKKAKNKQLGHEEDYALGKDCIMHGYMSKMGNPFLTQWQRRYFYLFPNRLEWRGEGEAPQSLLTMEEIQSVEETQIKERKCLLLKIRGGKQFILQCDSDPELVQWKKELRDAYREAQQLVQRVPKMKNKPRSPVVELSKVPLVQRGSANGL
Outline: as §1

T1 sequence (P34947 whole entry): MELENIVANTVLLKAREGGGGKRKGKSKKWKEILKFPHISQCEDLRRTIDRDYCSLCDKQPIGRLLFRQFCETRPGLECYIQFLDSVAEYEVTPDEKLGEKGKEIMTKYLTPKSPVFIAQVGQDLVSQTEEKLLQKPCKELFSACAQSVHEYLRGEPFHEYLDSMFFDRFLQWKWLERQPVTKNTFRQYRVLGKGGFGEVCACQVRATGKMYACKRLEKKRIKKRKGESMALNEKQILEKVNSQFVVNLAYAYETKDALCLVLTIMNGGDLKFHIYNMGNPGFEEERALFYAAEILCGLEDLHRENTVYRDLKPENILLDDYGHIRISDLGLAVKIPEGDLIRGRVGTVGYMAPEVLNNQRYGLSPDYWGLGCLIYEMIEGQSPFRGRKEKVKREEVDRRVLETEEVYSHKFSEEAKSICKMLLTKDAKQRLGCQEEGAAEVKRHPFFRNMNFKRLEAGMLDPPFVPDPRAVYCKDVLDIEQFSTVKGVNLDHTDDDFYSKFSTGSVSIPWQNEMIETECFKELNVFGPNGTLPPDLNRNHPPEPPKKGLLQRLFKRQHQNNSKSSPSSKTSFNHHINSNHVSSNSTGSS

SMILES	IC50 (GRK5) [nM]	IC50 (GRK2) [nM]	IC50 [1] [nM]
COc1ccc([C@@H](C)NC(=O)/C(C#N)=C/c2c[nH]c3ncc(-c4ccc(CN(C)C)cc4)cc23)cc1OC [Example 117, (R,E)-2-cyano-N-(1-(3,4-dimethoxyphenyl)ethyl)-3-(5-(4-((dimethylamino)methyl)phenyl)-1H-pyrrolo[2,3-b]pyridin-3-yl)acrylamide]	≤ 50	1000 to 10000	500 to 1000
COc1ccc([C@@H](CO)NC(=O)/C(C#N)=C/c2c[nH]c3ncc(-c4cnn(C)c4)cc23)cc1OC [Example 92, (S,E)-2-cyano-N-(1-(3,4-dimethoxyphenyl)-2-hydroxyethyl)-3-(5-(1-methyl-1H-pyrazol-4-yl)-1H-pyrrolo[2,3-b]pyridin-3-yl)acrylamide]	≤ 50	1000 to 10000	> 1000
C[C@@H](NC(=O)/C(C#N)=C/c1c[nH]c2ncc(-c3cnn(C)c3)cc12)c1ccc2c(c1)OCO2 [Example 252, (R,E)-N-(1-(benzo[d][1,3]dioxol-5-yl)ethyl)-2-cyano-3-(5-(1-methyl-1H-pyrazol-4-yl)-1H-pyrrolo[2,3-b]pyridin-3-yl)acrylamide]	≤ 50	500 to 1000	≤ 500

Now from value to molecule, other results behind:

IC50 (GRK5) [nM]	IC50 (GRK2) [nM]	SMILES	IC50 [1] [nM]
≤ 50	> 10000	COc1ccc([C@@H](C)NC(=O)/C=C/c2c[nH]c3ncc(-c4cccc(SC)c4)cc23)cc1OC [Example 254, (R,E)-N-(1-(3,4-dimethoxyphenyl)ethyl)-3-(5-(3-(methylthio)phenyl)-1H-pyrrolo[2,3-b]pyridin-3-yl)acrylamide]	> 1000
≤ 50	500 to 1000	COc1ccc([C@@H](C)NC(=O)/C=C/c2c[nH]c3ncc(-c4ccc(N5CCN(C)CC5)cc4)cc23)cc1OC [Example 113, (R,E)-N-(1-(3,4-dimethoxyphenyl)ethyl)-3-(5-(4-(4-methylpiperazin-1-yl)phenyl)-1H-pyrrolo[2,3-b]pyridin-3-yl)acrylamide]	≤ 500
≤ 50	1000 to 10000	COc1ccc([C@@H](C)NC(=O)/C=C/c2c[nH]c3ncc(-c4ccc(S(C)(=O)=O)cc4)cc23)cc1OC [Example 219, (R,E)-N-(1-(3,4-dimethoxyphenyl)ethyl)-3-(5-(4-(methylsulfonyl)phenyl)-1H-pyrrolo[2,3-b]pyridin-3-yl)acrylamide]	> 1000
